Measured values as given in ChEMBL document CHEMBL1136592, “Orally efficacious NR2B-selective NMDA receptor antagonists” (Bioorg Med Chem Lett, 2003).

How the values were obtained:
[1] = target: T1, Glutamate receptor ionotropic, NMDA 2B (Homo sapiens, UniProt Q05586+Q13224); test: Inhibition of the response to NMDA glutamate/glycine receptor NR2B subtype was determined using FLIPR assay
[2] = test system: Rattus norvegicus; test: Efficacy was determined by scoring behavioral responses to noxious stimuli in carrageenan-induced hyperalgesia assay in the rat after oral administration; format: functional
[3] = target: T1, Glutamate receptor ionotropic, NMDA 2B; test: Displacement of NMDA receptor-specific [3H]ifenprodil binding to recombinant human NMDA receptor, NR2B subtype expressed in L cells; format: cell-based
[4] = Bioavailability in rat; format: ADME, organism-based; conditions: in vivo
[5] = Half life period in rat; format: ADME, organism-based; conditions: in vivo
[6] = target: Glutamate receptor ionotropic, NMDA 2A (Homo sapiens, UniProt Q05586+Q12879); test: Inhibition of the response to NMDA glutamate/glycine receptor NR2A subtype was determined using FLIPR assay
Glutamate receptor ionotropic, NMDA 2A, sequence (Q12879 whole entry, one chain of several): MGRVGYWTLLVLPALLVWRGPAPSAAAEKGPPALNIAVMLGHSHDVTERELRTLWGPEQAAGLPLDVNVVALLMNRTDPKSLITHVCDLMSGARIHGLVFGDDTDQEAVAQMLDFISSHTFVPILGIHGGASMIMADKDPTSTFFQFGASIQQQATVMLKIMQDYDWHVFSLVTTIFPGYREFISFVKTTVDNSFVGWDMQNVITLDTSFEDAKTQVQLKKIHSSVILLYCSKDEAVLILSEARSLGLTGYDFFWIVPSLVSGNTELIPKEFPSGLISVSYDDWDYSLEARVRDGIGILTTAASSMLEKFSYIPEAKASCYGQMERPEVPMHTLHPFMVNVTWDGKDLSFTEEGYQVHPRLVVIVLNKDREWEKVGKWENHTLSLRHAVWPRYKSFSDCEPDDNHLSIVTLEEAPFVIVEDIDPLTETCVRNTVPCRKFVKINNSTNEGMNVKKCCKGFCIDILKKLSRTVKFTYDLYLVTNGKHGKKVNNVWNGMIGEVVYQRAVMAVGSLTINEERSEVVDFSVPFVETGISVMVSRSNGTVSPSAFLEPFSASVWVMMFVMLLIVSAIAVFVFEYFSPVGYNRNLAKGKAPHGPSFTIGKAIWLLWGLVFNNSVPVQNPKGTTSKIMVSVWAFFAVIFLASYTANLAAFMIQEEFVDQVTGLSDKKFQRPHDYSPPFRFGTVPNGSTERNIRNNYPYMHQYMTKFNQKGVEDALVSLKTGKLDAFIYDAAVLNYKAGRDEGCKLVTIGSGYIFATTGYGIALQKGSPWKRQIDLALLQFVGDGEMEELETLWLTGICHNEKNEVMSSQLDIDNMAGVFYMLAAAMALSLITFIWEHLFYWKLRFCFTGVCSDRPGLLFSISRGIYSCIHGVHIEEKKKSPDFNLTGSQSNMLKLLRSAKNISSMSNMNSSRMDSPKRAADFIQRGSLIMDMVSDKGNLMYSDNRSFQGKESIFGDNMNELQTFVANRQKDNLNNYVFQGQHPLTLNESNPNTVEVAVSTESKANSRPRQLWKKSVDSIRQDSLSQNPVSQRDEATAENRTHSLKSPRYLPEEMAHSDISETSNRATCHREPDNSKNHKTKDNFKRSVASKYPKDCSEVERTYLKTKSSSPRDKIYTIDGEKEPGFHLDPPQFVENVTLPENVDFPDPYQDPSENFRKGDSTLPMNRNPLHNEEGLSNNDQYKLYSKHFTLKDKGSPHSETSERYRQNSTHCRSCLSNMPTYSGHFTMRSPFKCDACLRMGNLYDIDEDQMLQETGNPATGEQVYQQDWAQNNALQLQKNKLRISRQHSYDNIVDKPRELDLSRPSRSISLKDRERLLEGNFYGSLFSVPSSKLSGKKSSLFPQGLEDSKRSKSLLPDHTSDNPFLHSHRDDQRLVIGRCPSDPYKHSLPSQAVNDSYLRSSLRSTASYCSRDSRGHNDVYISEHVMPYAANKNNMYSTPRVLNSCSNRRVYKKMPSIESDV

T1 sequence (Q13224 whole entry, one chain of several): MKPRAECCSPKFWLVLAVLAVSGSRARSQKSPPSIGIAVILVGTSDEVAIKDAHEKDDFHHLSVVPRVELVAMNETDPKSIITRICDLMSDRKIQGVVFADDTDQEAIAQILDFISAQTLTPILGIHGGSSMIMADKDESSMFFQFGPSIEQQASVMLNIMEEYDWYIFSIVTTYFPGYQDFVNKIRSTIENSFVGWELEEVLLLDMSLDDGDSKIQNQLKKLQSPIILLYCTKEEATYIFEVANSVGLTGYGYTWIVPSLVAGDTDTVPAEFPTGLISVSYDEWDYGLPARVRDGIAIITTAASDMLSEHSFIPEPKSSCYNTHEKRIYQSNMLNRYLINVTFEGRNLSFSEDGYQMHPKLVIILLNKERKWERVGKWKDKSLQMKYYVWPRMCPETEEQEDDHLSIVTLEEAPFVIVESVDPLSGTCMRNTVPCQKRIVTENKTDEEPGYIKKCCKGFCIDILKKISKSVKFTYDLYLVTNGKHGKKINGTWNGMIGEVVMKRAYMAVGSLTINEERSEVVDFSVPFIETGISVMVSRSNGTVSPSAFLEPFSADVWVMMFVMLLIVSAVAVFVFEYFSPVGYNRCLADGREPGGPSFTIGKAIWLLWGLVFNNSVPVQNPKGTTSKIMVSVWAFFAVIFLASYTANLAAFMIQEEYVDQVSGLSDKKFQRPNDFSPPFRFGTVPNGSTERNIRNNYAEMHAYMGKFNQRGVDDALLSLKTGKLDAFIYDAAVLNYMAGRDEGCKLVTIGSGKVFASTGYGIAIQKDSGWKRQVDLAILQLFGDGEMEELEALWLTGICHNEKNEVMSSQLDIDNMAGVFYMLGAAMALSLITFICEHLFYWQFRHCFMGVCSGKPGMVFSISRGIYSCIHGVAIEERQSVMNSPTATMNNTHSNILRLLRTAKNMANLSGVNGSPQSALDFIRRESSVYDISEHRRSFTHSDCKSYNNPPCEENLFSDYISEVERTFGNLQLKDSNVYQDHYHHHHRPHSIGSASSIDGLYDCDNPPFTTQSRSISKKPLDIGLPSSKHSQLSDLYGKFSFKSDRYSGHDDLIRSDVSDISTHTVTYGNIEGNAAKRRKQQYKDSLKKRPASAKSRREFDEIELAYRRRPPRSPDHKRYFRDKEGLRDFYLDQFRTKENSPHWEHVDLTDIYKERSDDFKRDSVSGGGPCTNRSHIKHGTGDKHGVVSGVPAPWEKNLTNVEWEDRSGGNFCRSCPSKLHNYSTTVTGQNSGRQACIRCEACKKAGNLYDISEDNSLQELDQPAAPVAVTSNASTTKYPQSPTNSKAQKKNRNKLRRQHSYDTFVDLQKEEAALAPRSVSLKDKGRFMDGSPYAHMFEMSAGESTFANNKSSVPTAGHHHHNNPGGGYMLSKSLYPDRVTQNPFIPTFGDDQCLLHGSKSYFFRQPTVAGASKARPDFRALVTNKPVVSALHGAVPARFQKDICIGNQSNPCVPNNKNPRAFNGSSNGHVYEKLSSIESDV

For `N=C(NCc1cc(Cl)cc(Cl)c1)c1ccc(OC(F)(F)F)cc1`, the IC50 [1] was 24 nM, the ED50 [2] was 16 mg/kg and the Ki [3] was 0.6 nM. For the same compound, the bioavailability [4] was 68%, the half-life [5] was 7 h and the IC50 [6] was greater than 10000 nM.
Compound `N=C(NCc1cccc(Cl)c1)c1cccc(F)c1` has a Ki [3] of 2000 nM.
Compound `N=C(NCc1ccccc1)c1ccc(-c2ccccc2)cc1` has a Ki [3] of 1800 nM.
Work on `N=C(NCc1cccc(Cl)c1)c1ccc(F)cc1` yielded an IC50 [1] of 450 nM and a Ki [3] of 600 nM.
`COc1cccc(C/N=C(\N)c2ccc(OC(F)(F)F)cc2)c1` showed an IC50 [1] of 9.7 nM and a Ki [3] of 23 nM.
`NC(=NCc1cccc(Cl)c1)c1ccccc1Cl` showed a Ki [3] of 3900 nM.
For `NC(=NCc1cccc(Cl)c1)c1ccccc1F`, the Ki [3] was greater than 15000 nM.
Compound `COc1ccccc1C/N=C(\N)c1ccc(OC(F)(F)F)cc1` has an IC50 [1] of 4.1 nM and a Ki [3] of 5.7 nM.
Work on `NC(=NCc1cccc(Cl)c1)c1ccc(C(F)(F)F)cc1` yielded an IC50 [1] of 32 nM and a Ki [3] of 20 nM.
For `N=C(/C=C/c1ccccc1)NCc1ccccc1`, the Ki [3] was 9 nM.
With `N=C(NCc1ccccc1)c1ccc(OC(F)(F)F)cc1` the IC50 [1] was 46 nM and the Ki [3] was 120 nM.
With `Cc1cc(C)cc(C/N=C(\N)c2ccc(OC(F)(F)F)cc2)c1` the IC50 [1] was 4.2 nM, the ED50 [2] was greater than 30 mg/kg and the Ki [3] was 1.2 nM. It also gave a bioavailability [4] of 4%, a half-life [5] of 1.53 h and an IC50 [6] greater than 10000 nM.
In the case of `NC(=NCc1ccccc1C(F)(F)F)c1ccc(OC(F)(F)F)cc1`, the IC50 [1] is reported as 47 nM, the ED50 [2] is reported as 5.5 mg/kg and the Ki [3] is reported as 72 nM. It also gave a bioavailability [4] of 100%, a half-life [5] of 2.45 h and an IC50 [6] greater than 10000 nM.
Work on `N=C(NCc1ccccc1OC(F)(F)F)c1ccc(Cl)c(Cl)c1` yielded an IC50 [1] of 57 nM, an ED50 [2] of 7.5 mg/kg and a Ki [3] of 12 nM. The bioavailability [4] was 31%, the half-life [5] was 3.05 h and the IC50 [6] was greater than 10000 nM.
`N=C(NCc1ccccc1)c1ccc(C(F)(F)F)cc1` showed an IC50 [1] of 360 nM and a Ki [3] of 480 nM.
Compound `NC(=NCc1cccc(Cl)c1)c1ccc(Cl)c(Cl)c1` has an IC50 [1] of 110 nM, an ED50 [2] of 14 mg/kg and a Ki [3] of 16 nM. It also gave a bioavailability [4] of 44%, a half-life [5] of 1.5 h and an IC50 [6] greater than 10000 nM.
Compound `N=C(NCc1cccc(Cl)c1)c1ccc(Cl)cc1` has an IC50 [1] of 160 nM and a Ki [3] of 63 nM.
With `NC(=NCc1ccccc1)c1ccc(Cl)cc1` the IC50 [1] was 720 nM and the Ki [3] was 970 nM.
For `NC(=NCc1cccc(Cl)c1)c1cccc(Cl)c1`, the IC50 [1] was 420 nM and the Ki [3] was 800 nM.
For `COc1ccc(C/N=C(\N)c2ccc(OC(F)(F)F)cc2)cc1`, the Ki [3] was 1100 nM.
In the case of `NC(=NCc1ccccc1)c1ccccc1`, the Ki [3] is reported as greater than 15000 nM.
`N=C(NCc1cccc(C(F)(F)F)c1)c1ccc(C(F)(F)F)cc1` gave an IC50 [1] of 660 nM and a Ki [3] of 700 nM.
For `N=C(NCc1ccccc1Cl)c1ccc(C(F)(F)F)cc1`, the IC50 [1] was 48 nM and the Ki [3] was 56 nM.
`Cc1cc(C)cc(C/N=C(\N)c2ccc(C(F)(F)F)cc2)c1` showed an IC50 [1] of 8.7 nM and a Ki [3] of 3.9 nM.
